Results from patent publication US9278992B2, “Function-selective vitamin D receptor agonist” (Nihon University, priority 2007, dated 2016).
“Also recorded” adds a separate entry of the source.

Tests used:
[1] = system: Cyp24a1, calbindin D9k, Trpv6, Trpv5; assay: Example 5: oral administration to mice, mRNA expression in kidney and intestinal mucosa; format: in vivo
Description: Blood was collected from the tail on days 0, 2, 4, 6, and 8, and by heart puncture on day 12. […]
(§1) Next, the in vivo effects of orally administered lithocholic acid derivatives (dissolved in corn oil) were examined.

myeloid leukemia cells = conditions: compared with 1,25(OH)2D3; Honma et al. 1983; cited from earlier work
[2] = Honma et al. 1983; cited from earlier work
[3] = Example 3: mice injected intraperitoneally, body weight and plasma calcium; conditions: mouse, in vivo, ip
[4] = system: Cyp24a1, calbindin D9k, Trpv6, Trpv5; assay: Example 5: intraperitoneal administration to mice, mRNA expression in kidney and intestinal mucosa; format: in vivo; conditions: day 8
Description: Blood was collected by heart puncture on day 8 and tissue mRNAs on day 8 were examined.

[5] = molecular target: T1, G protein-coupled bile acid receptor 1 (GPBAR1) (Homo sapiens, UniProt Q8TDU6); assay: Effect on GPBAR1 (FIG. 1); conditions: 10 μM
T1 sequence (Q8TDU6 1-330): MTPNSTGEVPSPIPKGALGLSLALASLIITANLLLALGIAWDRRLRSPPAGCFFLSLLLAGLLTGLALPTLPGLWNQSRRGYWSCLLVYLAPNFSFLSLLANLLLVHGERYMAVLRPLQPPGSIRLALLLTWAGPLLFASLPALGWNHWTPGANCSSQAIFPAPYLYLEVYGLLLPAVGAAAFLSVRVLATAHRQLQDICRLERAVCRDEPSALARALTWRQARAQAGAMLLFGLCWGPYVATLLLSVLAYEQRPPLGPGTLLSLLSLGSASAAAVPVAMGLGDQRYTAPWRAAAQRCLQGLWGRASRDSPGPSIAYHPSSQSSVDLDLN

[6] = system: Human myeloid leukemia HL60 cells; assay: Differentiation of myeloid leukemia HL60 cells (Nitro blue tetrazolium-reducing activity); format: cell-based; conditions: for induction of differentiation marker (Nitro blue tetrazolium-reducing activity), HL60 cells: 3 days
U937 cells = assay: Differentiation markers of myeloid leukemia U937 cells; format: cell-based
VDR target gene CYP24 = assay: Example 3: mice injected intraperitoneally, expression of VDR target gene CYP24 in kidney; format: in vivo; conditions: intraperitoneal, every other day, day 8
VDR [7] = molecular target: T2, VDR (Homo sapiens, UniProt P11473); assay: VDR activation, GAL4-VDR luciferase reporter in HEK293 cells; conditions: compared with lithocholic acid and lithocholic acid acetate
T2 sequence (P11473 127-423 limits assumed): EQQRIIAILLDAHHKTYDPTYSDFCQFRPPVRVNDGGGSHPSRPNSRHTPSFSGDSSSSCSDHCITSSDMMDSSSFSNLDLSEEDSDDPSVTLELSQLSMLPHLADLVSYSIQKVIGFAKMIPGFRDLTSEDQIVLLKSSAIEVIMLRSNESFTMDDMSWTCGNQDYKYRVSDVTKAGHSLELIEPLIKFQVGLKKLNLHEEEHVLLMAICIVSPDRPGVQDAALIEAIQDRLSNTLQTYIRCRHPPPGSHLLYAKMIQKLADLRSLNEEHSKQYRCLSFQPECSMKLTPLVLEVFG
Description: Cells were solubilized 16 to 18 hours later, and evaluated for the luciferase activity.

[8] = molecular target: T3, farnesoid X receptor (FXR) (Homo sapiens, UniProt Q96RI1); assay: Effect on FXR (FIG. 1); conditions: 18 μM
T3 sequence (Q96RI1 1-486): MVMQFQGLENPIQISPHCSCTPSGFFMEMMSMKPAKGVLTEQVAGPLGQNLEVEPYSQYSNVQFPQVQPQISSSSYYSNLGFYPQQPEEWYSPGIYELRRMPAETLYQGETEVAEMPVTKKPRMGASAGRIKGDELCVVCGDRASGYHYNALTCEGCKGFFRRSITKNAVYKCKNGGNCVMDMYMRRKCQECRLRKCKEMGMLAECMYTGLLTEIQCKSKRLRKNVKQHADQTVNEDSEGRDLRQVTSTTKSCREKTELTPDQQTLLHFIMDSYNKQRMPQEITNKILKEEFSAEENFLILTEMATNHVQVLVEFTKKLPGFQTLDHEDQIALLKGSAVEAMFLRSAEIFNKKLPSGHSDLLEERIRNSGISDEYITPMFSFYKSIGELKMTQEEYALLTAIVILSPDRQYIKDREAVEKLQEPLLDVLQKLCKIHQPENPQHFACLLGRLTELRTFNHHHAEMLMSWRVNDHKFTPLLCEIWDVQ

leukemic cells = conditions: cited from earlier work
[9] = molecular target: T3, farnesoid X receptor (FXR); conditions: Non-Patent Documents 3 and 4; cited from earlier work
VDR [10] = molecular target: T4, VDR (Homo sapiens, UniProt P11473); conditions: Non-Patent Documents 2 and 3; cited from earlier work
T4 sequence (P11473 1-427): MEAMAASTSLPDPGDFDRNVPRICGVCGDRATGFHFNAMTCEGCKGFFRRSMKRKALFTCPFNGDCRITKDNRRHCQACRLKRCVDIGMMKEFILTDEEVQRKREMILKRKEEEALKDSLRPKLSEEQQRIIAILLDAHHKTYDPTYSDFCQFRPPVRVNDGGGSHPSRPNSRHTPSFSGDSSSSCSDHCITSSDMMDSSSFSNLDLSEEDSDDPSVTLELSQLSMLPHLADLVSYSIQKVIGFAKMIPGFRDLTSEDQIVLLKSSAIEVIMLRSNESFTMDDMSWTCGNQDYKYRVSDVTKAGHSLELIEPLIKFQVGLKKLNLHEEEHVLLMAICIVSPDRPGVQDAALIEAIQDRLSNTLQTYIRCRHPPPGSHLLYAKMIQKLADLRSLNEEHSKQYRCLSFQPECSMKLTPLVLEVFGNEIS

[11] = Example 5: intraperitoneal administration to mice, body weight and plasma calcium; format: in vivo; conditions: 0.7 mmol/kg
Description: […]. […] […]. Blood was collected by heart puncture on day 8 and tissue mRNAs on day 8 were examined.

[12] = Example 5: oral administration to mice, body weight and plasma calcium; conditions: oral (gavage), 1 mmol/kg
Description: Blood was collected from the tail on days 0, 2, 4, 6, and 8, and by heart puncture on day 12. Tissue mRNAs on day 12 were examined. * indicates p<0.05; ** indicates p<0.01; *** indicates p<0.001, compared with vehicle control.
as §1

Q: For `C=C1/C(=C\C=C2/CCC[C@]3(C)[C@@H]([C@H](C)CCCC(C)C)CC[C@@H]23)C[C@@H](O)C[C@@H]1O` [1α-hydroxyvitamin D3], which “intestinal mucosa Cyp24a1 expression” value ([1]; 1 day single oral dose (data not shown)) is on record?
A: not observed

Q: What about the “intestinal mucosa Cyp24a1 expression” value ([1]; 10 day oral administration, 12.5 nmol/kg) of the same compound?
A: not increased

Q: And the “survival time of the mice inoculated with leukemia cells” value (myeloid leukemia cells)?
A: more effective than 1,25(OH)2D3 in increasing the survival time

Q: And the “conversion to 1,25-dihydroxyvitamin D3 after injection” value [2]?
A: rapidly converted to 1,25-dihydroxyvitamin D3

Q: And the “body weight of mice” value [3]?
A: decreased the body weight of mice

Q: And the “intestinal mucosa Cyp24a1 expression” value ([4]; 12.5 nmol/kg)?
A: induced the intestinal mucosa Cyp24a1 expression

Q: What about the “kidney Cyp24a1 expression” value ([4]; 12.5 nmol/kg) of the same compound?
A: effectively induced the expression

Q: And the “kidney Trpv5 expression” value ([4]; 12.5 nmol/kg)?
A: effectively induced the expression

Q: What about the “kidney Trpv6 expression” value ([4]; 12.5 nmol/kg) of the same compound?
A: effectively induced the expression

Q: What about the “kidney calbindin D9k expression” value ([4]; 12.5 nmol/kg) of the same compound?
A: effectively induced the expression

Q: For `CCC(=O)O[C@@H]1CC[C@@]2(C)[C@H](CC[C@@H]3[C@@H]2CC[C@]2(C)[C@@H]([C@H](C)CCC(=O)O)CC[C@@H]32)C1` [lithocholic acid propionate], which “effects on GPBAR1” value [5] is on record?
A: extremely weak effects

Q: What about the “induction of differentiation markers, HL-60 cells” value [6] of the same compound?
A: induced the differentiation markers

Q: And the “induction of differentiation marker (Nitro blue tetrazolium-reducing activity), HL60 cells” value ([6]; 10 μM)?
A: weakly

Q: What about the “induction of differentiation marker (Nitro blue tetrazolium-reducing activity), HL60 cells” value ([6]; 30 μM) of the same compound?
A: effectively

Q: And the “kidney Cyp24a1 expression” value ([1]; oral (gavage), 0.7 mmol/kg and 1 mmol/kg, day 12)?
A: induced the kidney Cyp24a1 expression as effectively as 1α(OH)D3

Q: What about the “kidney calbindin D9k expression” value ([1]; oral (gavage), day 12) of the same compound?
A: not induced

Q: What about the “induction of differentiation markers, U937 cells” value (U937 cells) of the same compound?
A: induced the differentiation markers

Q: And the “expression of the VDR target gene CYP24 in kidney” value (VDR target gene CYP24)?
A: induced the expression of the VDR target gene in the organ

Q: What about the “selectivity as VDR ligand (VDR versus FXR and GPBAR1)” value (VDR [7]) of the same compound?
A: more selective VDR ligand (activating agent) than lithocholic acid and lithocholic acid acetate

Q: And the “body weight of mice” value [3]?
A: did not adversely affect the body weight or the blood calcium level

Q: And the “intestinal mucosa target gene expression” value ([4]; 0.7 mmol/kg)?
A: not effective in inducing intestinal mucosa target gene expression

Q: What about the “kidney Cyp24a1 expression” value ([4]; 0.7 mmol/kg) of the same compound?
A: induced the expression of kidney Cyp24a1 as effectively as 1α(OH)D3

Q: What about the “potency on FXR” value [8] of the same compound?
A: extremely weak potency on FXR

Q: With lithocholic acid acetate as the compound, how does the “differentiation of leukemic cells” value (leukemic cells) read?
A: induced the differentiation of leukemic cells

Q: What about the “activity on FXR” value [9] of the same compound?
A: weaker than that of chenodeoxycholic acid and comparable to that of lithocholic acid

Q: And the “induction of differentiation marker (Nitro blue tetrazolium-reducing activity), HL60 cells” value ([6]; 10 μM)?
A: weakly

Q: And the “induction of differentiation marker (Nitro blue tetrazolium-reducing activity), HL60 cells” value ([6]; 30 μM)?
A: effectively

Q: And the “function and potency as VDR ligand” value (VDR [10])?
A: activated VDR more potently than lithocholic acid; also recorded: more potency on VDR than lithocholic acid

Q: What about the body weight [11] of the same compound?
A: did not decrease their body weight

Q: What about the body weight [12] of the same compound?
A: did not affect the body weight or plasma calcium

Q: What about the plasma calcium [12] of the same compound?
A: did not affect the body weight or plasma calcium
